Reference: ChEMBL document CHEMBL1201862, “PubChem BioAssay data set” (2004)
Calls of active or inactive are those of the source.

Legend:
[1] = biological target: T1, Carboxy-terminal domain RNA polymerase II polypeptide A small phosphatase 1 (Homo sapiens, UniProt Q9GZU7); experiment: CTDSP1 inhibitors, concentration-response, biochemical, absorbance readout, ultra-high-throughput screen actives (AID 540297); type: functional
T1 sequence (Q9GZU7 whole entry): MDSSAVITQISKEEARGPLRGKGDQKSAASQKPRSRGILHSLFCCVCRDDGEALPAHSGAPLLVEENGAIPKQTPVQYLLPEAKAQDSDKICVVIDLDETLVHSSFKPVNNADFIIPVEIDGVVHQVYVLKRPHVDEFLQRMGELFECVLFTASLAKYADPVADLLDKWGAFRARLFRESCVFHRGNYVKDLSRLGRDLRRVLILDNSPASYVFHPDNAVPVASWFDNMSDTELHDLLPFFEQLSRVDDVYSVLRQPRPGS

[2] = biological target: Eukaryotic translation initiation factor 4E (Mus musculus, UniProt P63073); experiment: blockers of eIF4G binding by eIF4E – biochemical, TR-FRET, dose response (AID 855); type: functional;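 further: potency for disrupting eIF4E binding to eIF4GI seen as loss of FRET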
Coagulation factor XII = biological target: T2, Coagulation factor XII (Homo sapiens, UniProt P00748); type: functional;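 further: activated factor XIIa alpha cleaving a fluorogenic AMC peptide substrate; inhibitor potency from loss of enzyme activity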
T2 sequence (P00748 whole entry): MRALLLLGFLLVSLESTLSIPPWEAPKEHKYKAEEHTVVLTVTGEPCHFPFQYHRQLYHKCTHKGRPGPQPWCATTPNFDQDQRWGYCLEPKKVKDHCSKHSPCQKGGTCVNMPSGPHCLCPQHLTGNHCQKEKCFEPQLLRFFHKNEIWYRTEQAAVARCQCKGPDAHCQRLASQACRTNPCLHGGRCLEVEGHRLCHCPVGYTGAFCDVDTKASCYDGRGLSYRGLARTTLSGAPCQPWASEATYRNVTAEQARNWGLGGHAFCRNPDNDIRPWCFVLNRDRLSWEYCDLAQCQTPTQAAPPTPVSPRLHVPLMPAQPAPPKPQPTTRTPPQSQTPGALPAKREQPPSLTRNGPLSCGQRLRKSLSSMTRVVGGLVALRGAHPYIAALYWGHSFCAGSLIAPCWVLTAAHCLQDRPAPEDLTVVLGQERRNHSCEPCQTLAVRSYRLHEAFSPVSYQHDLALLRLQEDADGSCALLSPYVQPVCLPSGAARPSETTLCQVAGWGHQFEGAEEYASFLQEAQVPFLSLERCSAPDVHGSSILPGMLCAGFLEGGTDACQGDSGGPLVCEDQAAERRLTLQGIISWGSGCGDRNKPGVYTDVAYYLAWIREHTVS

[3] = test system: Streptococcus sp. 'group A'; experiment: Streptococcus pyogenes SK(-)GAS viability under kanamycin – luminescence, BacTiterGlo, confirmation, counter-screen for streptokinase expression inhibitor project, dose response (AID 1900); type: functional, organism-based
[4] = Trypanosoma cruzi growth suppression in host cells – NIH3T3 host cells, beta-gal luminescence, confirmation (AID 2044); type: functional, cell-based;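 further: intracellular parasites grown in NIH/3T3 mouse fibroblasts as host cells; luminescent beta-galactosidase reporter signal from transgenic T. cruzi replicating inside host cells; inhibitors lower the luminescence signal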
[5] = A Cell Based Secondary Assay To Explore Cytotoxicity of Compounds that Sensitize Mycobacterium Tuberculosis to Beta-Lactam Antibiotics.; type: functional
[6] = NIH3T3 cell viability loss – ATP luminescence, mouse fibroblasts, counter-screen, dose response (AID 2010); type: functional, cell-based;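 further: cells exposed to compound for about 90 hours before reading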
Streptokinase A = biological target: T3, Streptokinase A (Streptococcus pyogenes serotype M1, UniProt P10520); experiment: viability-normalized secreted streptokinase activity reduction – plasminogen activation absorbance, OD405, dose response (AID 1914); type: functional, Streptococcus pyogenes M1 GAS;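 further: secreted streptokinase activity via plasminogen activation per viability signal from cell pellet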
T3 sequence (P10520 whole entry): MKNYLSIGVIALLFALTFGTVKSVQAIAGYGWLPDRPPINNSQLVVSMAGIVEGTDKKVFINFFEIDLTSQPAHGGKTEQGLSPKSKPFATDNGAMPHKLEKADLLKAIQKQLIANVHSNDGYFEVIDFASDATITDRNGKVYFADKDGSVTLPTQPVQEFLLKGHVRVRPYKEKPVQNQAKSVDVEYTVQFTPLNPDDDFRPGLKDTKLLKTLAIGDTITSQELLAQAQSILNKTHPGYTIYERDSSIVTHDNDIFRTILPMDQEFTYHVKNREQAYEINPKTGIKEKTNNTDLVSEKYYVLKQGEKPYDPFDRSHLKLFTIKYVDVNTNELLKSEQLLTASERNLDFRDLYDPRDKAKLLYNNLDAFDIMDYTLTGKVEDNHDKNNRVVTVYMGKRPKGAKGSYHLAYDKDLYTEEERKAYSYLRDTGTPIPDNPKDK

Streptococcus = experiment: GAS UMAA2166 growth inhibition – luminescence, BacTiterGlo, counter-screen for streptokinase expression inhibitor project, dose response (AID 1915); type: functional, organism-based;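 further: potency for reduction of bacterial viability or growth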
HEK293 [7] = experiment: inhibition of NOD1-driven NF-kB reporter – cell-based, luminescence, uHTS, primary screen (AID 1578); type: functional; details: Homo sapiens
[8] = biological target: Nucleotide-binding oligomerization domain-containing protein 2 (Homo sapiens, UniProt Q9HC29); experiment: inhibition of NOD2-driven NF-kB reporter – cell-based, luminescence, uHTS, HEK293 (AID 1566); type: functional
HEK293 [9] = experiment: cells; type: functional, cell-based; details: Homo sapiens
HEK293 [10] = experiment: cells; type: functional, cell-based; details: Homo sapiens; remark: listed apart in the source
HEK293 [11] = experiment: cells; type: functional, cell-based; details: Homo sapiens; remark: listed apart in the source
HEK293 [12] = experiment: NOD2 signaling inhibitors in MDP-stimulated cells, cell-based, uHTS, luminescence (AID 2001); type: functional; details: Homo sapiens
[13] = biological target: Heat shock protein HSP 90-alpha (Homo sapiens, UniProt P07900); type: functional, organism-based
Beta-galactosidase = Beta-galactosidase (Escherichia coli, UniProt Q8VNN2); experiment: detection-enzyme interference by beta-gal modulators – biochemical, E. coli enzyme, set 3, artefact control for CCR6 antagonist project, dose response (AID 504712); type: functional
[14] = biological target: DNA dC->dU-editing enzyme APOBEC-3G (Homo sapiens, UniProt Q9HC16); experiment: Dose Response confirmation of small molecule APOBEC3G DNA Deaminase Inhibitors via a fluorescence-based single-stranded DNA deaminase assay. [Related pubchem assays (depositor defined):AID493012, AID493028]; type: functional
[15] = Luminescence Cell-Based Dose Retest to Confirm Inhibitors of Cancer Stem Cells. [Related pubchem assays (depositor defined):AID2717, AID2721]; type: functional; details: Homo sapiens
[16] = A cytotoxicity screen of small molecule inhibitors of the PhoP region in Salmonella typhi identified in the primary screen. [Related pubchem assays: 1850, 1864, 1985 ]; type: functional
[17] = HIV-1 Vif–A3G interaction blockers – biochemical, TR-FRET, GST-Vif 1-94, biotin-A3G peptide, dose response retest, primary screen (AID 1117319); type: functional;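 further: TR-FRET signal of purified GST-Vif binding a biotinylated A3G peptide; inhibitors lower the FRET signal by blocking Vif and A3G binding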
Troponin, cardiac muscle = Troponin, cardiac muscle (Homo sapiens, UniProt P19429+P45379+P63316); experiment: Fluorescence-based biochemical high throughput dose response assay for activators of the calcium sensitivity of cardiac Regulated Thin Filaments (RTF). [Related pubchem assays (depositor defined):AID493008, AID493018, AID504382, AID504383]; type: protein-complex assay

## CCOc1ccccc1NC(=O)N1CCC(NC(=O)c2cccc(C)c2)CC1
[1]
  IC50: 18.8 µM (active)
[2]
  IC50: 58 µM (inactive)

## Cc1ccc(-n2ncc3c(O)ncnc32)c(C)c1
Coagulation factor XII
  IC50: > 50 µM (inactive)

## O=[N+]([O-])c1ccc2c(c1)c1ccccc1n2CCO
Coagulation factor XII
  IC50: > 50 µM (inactive)

## CCOC(=O)c1sc(NC(=O)Nc2ccc(Cl)cc2)cc1C
[3]
  EC50: 6.12 µM (active)
[4]
  EC50: 1.5 µM (active)
[5]
  CC50: 24.9 µM (active)
[6]
  EC50: > 60 µM (not active)
Streptokinase A
  EC50: 26.1 µM (inconclusive)
Streptococcus
  EC50: 15.6 µM (active)

## Cc1ccc(C(C)C)c(OCc2ccc(-c3nnco3)cc2)c1
HEK293 [7]
  EC50: 13.2 µM (active)
[8]
  EC50: 14.6 µM (active)
HEK293 [9]
  IC50: > 20 µM (inactive)
HEK293 [10]
  IC50: > 20 µM (inactive)
HEK293 [11]
  IC50: 15.2 µM (active)
HEK293 [12]
  IC50: > 20 µM (inactive)

## CCOC(=O)/C=C/C(=O)Nc1cccc([N+](=O)[O-])c1
[13]
  AC50: 3.97 µM (active)
Beta-galactosidase
  IC50: > 66.6 µM (inactive)
[14]
  IC50: 11 µM (active)
[15]
  AC50: 5.87 µM (active)

## COC(=O)c1ccc(NCC(=O)Nc2cc(C)cc(C)c2)cc1
Coagulation factor XII
  IC50: > 50 µM (inactive)

## O=C(CSc1nc(-c2ccc(F)cc2)c[nH]1)NCc1ccco1
[16]
  EC50: > 50 µM (active)

## CCn1c(=N)n(CC(=O)c2ccc(OC)cc2)c2ccccc21
[16]
  EC50: > 50 µM (active)
[17]
  IC50: > 100 µM (active)

## CCN(CC)C(=S)SCC(=O)c1c(C)[nH]c2ccccc12
Troponin, cardiac muscle
  EC50: > 71.5 µM (inactive)
